Results published in PubChem BioAssay (NCI).
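Compound exposure: 48 hours, 5 concentrations, 96-well plates. At the TGI there is no net growth.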

Key:
Experiment in all cases: growth of human tumour cells (NCI), 48 h
CCRF-CEM leukemia = tested on: CCRF-CEM leukemia
MCF7 breast = tested on: MCF7 breast
T-47D breast = tested on: T-47D breast
MDA-MB-435 = tested on: MDA-MB-435
UO-31 renal = tested on: UO-31 renal
PC-3 prostate = tested on: PC-3 prostate
SN12C renal = tested on: SN12C renal
RXF 393 renal = tested on: RXF 393 renal
OVCAR-8 ovarian = tested on: OVCAR-8 ovarian
HT29 colon = tested on: HT29 colon
UACC-62 melanoma = tested on: UACC-62 melanoma
SF-539 CNS = tested on: SF-539 CNS
SR leukemia = tested on: SR leukemia
HOP-62 NSCLC = tested on: HOP-62 NSCLC
M14 melanoma = tested on: M14 melanoma
CAKI-1 renal = tested on: CAKI-1 renal
EKVX NSCLC = tested on: EKVX NSCLC
NCI-H226 lung = tested on: NCI-H226 lung
TK-10 renal = tested on: TK-10 renal
786-0 renal = tested on: 786-0 renal
BT-549 breast = tested on: BT-549 breast
NCI-H23 lung = tested on: NCI-H23 lung
SNB-19 CNS = tested on: SNB-19 CNS
NCI/ADR-RES ovarian = tested on: NCI/ADR-RES ovarian
LOX IMVI melanoma = tested on: LOX IMVI melanoma
SK-MEL-5 melanoma = tested on: SK-MEL-5 melanoma
MDA-MB-231 breast = tested on: MDA-MB-231 breast
KM12 colon = tested on: KM12 colon
IGROV1 ovarian = tested on: IGROV1 ovarian
HCC-2998 colon = tested on: HCC-2998 colon
DU-145 prostate = tested on: DU-145 prostate
COLO 205 colon = tested on: COLO 205 colon
MDA-N = tested on: MDA-N
K-562 leukemia = tested on: K-562 leukemia
OVCAR-3 ovarian = tested on: OVCAR-3 ovarian
U251 CNS = tested on: U251 CNS
HCT-116 colon = tested on: HCT-116 colon
ACHN renal = tested on: ACHN renal
HL-60(TB) leukemia = tested on: HL-60(TB) leukemia
SW-620 colon = tested on: SW-620 colon
NCI-H522 lung = tested on: NCI-H522 lung
UACC-257 melanoma = tested on: UACC-257 melanoma
HCT-15 colon = tested on: HCT-15 colon
SF-295 CNS = tested on: SF-295 CNS
SK-OV-3 ovarian = tested on: SK-OV-3 ovarian
MOLT-4 leukemia = tested on: MOLT-4 leukemia
MALME-3M melanoma = tested on: MALME-3M melanoma
RPMI-8226 leukemia = tested on: RPMI-8226 leukemia
OVCAR-5 ovarian = tested on: OVCAR-5 ovarian
A549 NSCLC = tested on: A549 NSCLC
SK-MEL-2 melanoma = tested on: SK-MEL-2 melanoma
OVCAR-4 ovarian = tested on: OVCAR-4 ovarian
A498 renal = tested on: A498 renal
SK-MEL-28 melanoma = tested on: SK-MEL-28 melanoma
HOP-92 NSCLC = tested on: HOP-92 NSCLC
NCI-H460 lung = tested on: NCI-H460 lung
SF-268 CNS = tested on: SF-268 CNS

Compound: O=C1CC2(CCNCC2)C(=O)N1N1CCCC1
- TGI (CCRF-CEM leukemia): > 100 µM
- TGI (MCF7 breast): > 100 µM
- TGI (T-47D breast): > 100 µM
- TGI (MDA-MB-435): > 100 µM
- TGI (UO-31 renal): > 100 µM
- TGI (PC-3 prostate): > 100 µM
- TGI (SN12C renal): > 100 µM
- TGI (RXF 393 renal): > 100 µM
- TGI (OVCAR-8 ovarian): > 100 µM
- TGI (HT29 colon): > 100 µM
- TGI (UACC-62 melanoma): > 100 µM
- TGI (SF-539 CNS): > 100 µM
- TGI (SR leukemia): > 100 µM
- TGI (HOP-62 NSCLC): > 100 µM
- TGI (M14 melanoma): > 100 µM
- TGI (CAKI-1 renal): > 100 µM
- TGI (EKVX NSCLC): > 100 µM
- TGI (NCI-H226 lung): > 100 µM
- TGI (TK-10 renal): > 100 µM
- TGI (786-0 renal): > 100 µM
- TGI (BT-549 breast): > 100 µM
- TGI (NCI-H23 lung): > 100 µM
- TGI (SNB-19 CNS): > 100 µM
- TGI (NCI/ADR-RES ovarian): > 100 µM
- TGI (LOX IMVI melanoma): > 100 µM
- TGI (SK-MEL-5 melanoma): > 100 µM
- TGI (MDA-MB-231 breast): > 100 µM
- TGI (KM12 colon): > 100 µM
- TGI (IGROV1 ovarian): > 100 µM
- TGI (HCC-2998 colon): > 100 µM
- TGI (DU-145 prostate): > 100 µM
- TGI (COLO 205 colon): > 100 µM
- TGI (MDA-N): > 100 µM
- TGI (K-562 leukemia): > 100 µM
- TGI (OVCAR-3 ovarian): > 100 µM
- TGI (U251 CNS): > 100 µM
- TGI (HCT-116 colon): > 100 µM
- TGI (ACHN renal): > 100 µM
- TGI (HL-60(TB) leukemia): > 100 µM
- TGI (SW-620 colon): > 100 µM
- TGI (NCI-H522 lung): > 100 µM
- TGI (UACC-257 melanoma): > 100 µM
- TGI (HCT-15 colon): > 100 µM
- TGI (SF-295 CNS): > 100 µM
- TGI (SK-OV-3 ovarian): > 100 µM
- TGI (MOLT-4 leukemia): > 100 µM
- TGI (MALME-3M melanoma): > 100 µM
- TGI (RPMI-8226 leukemia): > 100 µM
- TGI (OVCAR-5 ovarian): > 100 µM
- TGI (A549 NSCLC): > 100 µM

Compound: FC(F)(Sc1ccccc1)c1nc2ccccc2o1
- TGI (CCRF-CEM leukemia): 55.5 µM
- TGI (MCF7 breast): > 100 µM
- TGI (SK-MEL-2 melanoma): > 100 µM
- TGI (T-47D breast): > 100 µM
- TGI (MDA-MB-435): > 100 µM
- TGI (UO-31 renal): > 100 µM
- TGI (PC-3 prostate): > 100 µM
- TGI (SN12C renal): > 100 µM
- TGI (OVCAR-4 ovarian): > 100 µM
- TGI (RXF 393 renal): > 100 µM
- TGI (OVCAR-8 ovarian): > 100 µM
- TGI (HT29 colon): > 100 µM
- TGI (UACC-62 melanoma): > 100 µM
- TGI (SF-539 CNS): > 100 µM
- TGI (SR leukemia): 73.7 µM
- TGI (HOP-62 NSCLC): > 100 µM
- TGI (M14 melanoma): > 100 µM
- TGI (CAKI-1 renal): > 100 µM
- TGI (NCI-H226 lung): > 100 µM
- TGI (TK-10 renal): > 100 µM
- TGI (786-0 renal): > 100 µM
- TGI (BT-549 breast): > 100 µM
- TGI (NCI-H23 lung): > 100 µM
- TGI (NCI/ADR-RES ovarian): > 100 µM
- TGI (SK-MEL-5 melanoma): > 100 µM
- TGI (MDA-MB-231 breast): > 100 µM
- TGI (KM12 colon): > 100 µM
- TGI (IGROV1 ovarian): > 100 µM
- TGI (HCC-2998 colon): > 100 µM
- TGI (DU-145 prostate): > 100 µM
- TGI (COLO 205 colon): > 100 µM
- TGI (MDA-N): > 100 µM
- TGI (K-562 leukemia): > 100 µM
- TGI (OVCAR-3 ovarian): > 100 µM
- TGI (U251 CNS): > 100 µM
- TGI (A498 renal): > 100 µM
- TGI (SK-MEL-28 melanoma): > 100 µM
- TGI (HOP-92 NSCLC): > 100 µM
- TGI (NCI-H460 lung): > 100 µM
- TGI (HCT-116 colon): > 100 µM
- TGI (ACHN renal): > 100 µM
- TGI (SW-620 colon): > 100 µM
- TGI (NCI-H522 lung): > 100 µM
- TGI (UACC-257 melanoma): > 100 µM
- TGI (HCT-15 colon): > 100 µM
- TGI (SF-268 CNS): > 100 µM
- TGI (SF-295 CNS): > 100 µM
- TGI (SK-OV-3 ovarian): 69.4 µM
- TGI (MOLT-4 leukemia): 52.2 µM
- TGI (MALME-3M melanoma): > 100 µM
- TGI (RPMI-8226 leukemia): > 100 µM
- TGI (OVCAR-5 ovarian): > 100 µM
- TGI (A549 NSCLC): > 100 µM
